Assay results: PubChem BioAssay (NCI)
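Step 1: Grow cells in 96-well plates. Step 2: Expose to compound for 48 hours at 5 concentrations. Step 3: Interpolate endpoints linearly; if unreached, use highest concentration. TGI denotes the concentration required for complete inhibition of growth.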

Experiments:
Assay in all cases: NCI anticancer screen, dose series, 48 h
HL-60(TB) leukemia = system: HL-60(TB) leukemia
CCRF-CEM leukemia = system: CCRF-CEM leukemia
MDA-MB-231 breast = system: MDA-MB-231 breast
MOLT-4 leukemia = system: MOLT-4 leukemia
SF-295 CNS = system: SF-295 CNS
A498 renal = system: A498 renal
DU-145 prostate = system: DU-145 prostate
M14 melanoma = system: M14 melanoma
EKVX NSCLC = system: EKVX NSCLC
HS 578T breast = system: HS 578T breast
RPMI-8226 leukemia = system: RPMI-8226 leukemia
BT-549 breast = system: BT-549 breast
SW-620 colon = system: SW-620 colon
OVCAR-3 ovarian = system: OVCAR-3 ovarian
MCF7 breast = system: MCF7 breast
OVCAR-5 ovarian = system: OVCAR-5 ovarian
OVCAR-4 ovarian = system: OVCAR-4 ovarian
NCI-H460 lung = system: NCI-H460 lung
SN12C renal = system: SN12C renal
OVCAR-8 ovarian = system: OVCAR-8 ovarian
SR leukemia = system: SR leukemia
NCI-H522 lung = system: NCI-H522 lung
SNB-19 CNS = system: SNB-19 CNS
UACC-257 melanoma = system: UACC-257 melanoma
NCI-H226 lung = system: NCI-H226 lung
KM12 colon = system: KM12 colon
RXF 393 renal = system: RXF 393 renal
SF-539 CNS = system: SF-539 CNS
LOX IMVI melanoma = system: LOX IMVI melanoma
HT29 colon = system: HT29 colon
786-0 renal = system: 786-0 renal
NCI-H23 lung = system: NCI-H23 lung
HOP-92 NSCLC = system: HOP-92 NSCLC
A549 NSCLC = system: A549 NSCLC
K-562 leukemia = system: K-562 leukemia
SK-MEL-5 melanoma = system: SK-MEL-5 melanoma
TK-10 renal = system: TK-10 renal
IGROV1 ovarian = system: IGROV1 ovarian
HCT-15 colon = system: HCT-15 colon
SNB-75 CNS = system: SNB-75 CNS
UO-31 renal = system: UO-31 renal
PC-3 prostate = system: PC-3 prostate
T-47D breast = system: T-47D breast
SK-MEL-28 melanoma = system: SK-MEL-28 melanoma
HOP-62 NSCLC = system: HOP-62 NSCLC
CAKI-1 renal = system: CAKI-1 renal
SF-268 CNS = system: SF-268 CNS
MDA-N = system: MDA-N
HCT-116 colon = system: HCT-116 colon
ACHN renal = system: ACHN renal
MALME-3M melanoma = system: MALME-3M melanoma
COLO 205 colon = system: COLO 205 colon
SK-OV-3 ovarian = system: SK-OV-3 ovarian
SK-MEL-2 melanoma = system: SK-MEL-2 melanoma
HCC-2998 colon = system: HCC-2998 colon
NCI/ADR-RES ovarian = system: NCI/ADR-RES ovarian
MDA-MB-435 = system: MDA-MB-435
U251 CNS = system: U251 CNS
UACC-62 melanoma = system: UACC-62 melanoma

COc1ccc2cc(Oc3ccc(Cl)cc3)c(=O)oc2c1
TGI (HL-60(TB) leukemia): > 100 µM | TGI (CCRF-CEM leukemia): > 100 µM | TGI (MDA-MB-231 breast): > 100 µM | TGI (MOLT-4 leukemia): > 100 µM | TGI (SF-295 CNS): > 100 µM | TGI (A498 renal): > 100 µM | TGI (DU-145 prostate): > 100 µM | TGI (M14 melanoma): > 100 µM | TGI (EKVX NSCLC): > 100 µM | TGI (HS 578T breast): > 100 µM | TGI (RPMI-8226 leukemia): > 100 µM | TGI (BT-549 breast): > 100 µM | TGI (SW-620 colon): > 100 µM | TGI (OVCAR-3 ovarian): > 100 µM | TGI (MCF7 breast): > 100 µM | TGI (OVCAR-5 ovarian): > 100 µM | TGI (OVCAR-4 ovarian): > 100 µM | TGI (NCI-H460 lung): > 100 µM | TGI (SN12C renal): > 100 µM | TGI (OVCAR-8 ovarian): > 100 µM | TGI (SR leukemia): > 100 µM | TGI (NCI-H522 lung): > 100 µM | TGI (SNB-19 CNS): > 100 µM | TGI (UACC-257 melanoma): > 100 µM | TGI (NCI-H226 lung): > 100 µM | TGI (KM12 colon): > 100 µM | TGI (RXF 393 renal): > 100 µM | TGI (SF-539 CNS): > 100 µM | TGI (LOX IMVI melanoma): > 100 µM | TGI (HT29 colon): > 100 µM | TGI (786-0 renal): > 100 µM | TGI (NCI-H23 lung): > 100 µM | TGI (HOP-92 NSCLC): > 100 µM | TGI (A549 NSCLC): > 100 µM | TGI (K-562 leukemia): > 100 µM | TGI (SK-MEL-5 melanoma): > 100 µM | TGI (TK-10 renal): > 100 µM | TGI (IGROV1 ovarian): > 100 µM | TGI (HCT-15 colon): > 100 µM | TGI (SNB-75 CNS): > 100 µM | TGI (UO-31 renal): > 100 µM | TGI (PC-3 prostate): > 100 µM | TGI (T-47D breast): > 100 µM | TGI (SK-MEL-28 melanoma): > 100 µM | TGI (HOP-62 NSCLC): > 100 µM | TGI (CAKI-1 renal): > 100 µM | TGI (SF-268 CNS): > 100 µM | TGI (MDA-N): > 100 µM | TGI (HCT-116 colon): > 100 µM | TGI (ACHN renal): > 100 µM | TGI (MALME-3M melanoma): > 100 µM

CN(C)C=C1C(=O)c2c(Br)sc(Br)c2C1=O
TGI (HL-60(TB) leukemia): 53.7 µM | TGI (CCRF-CEM leukemia): > 100 µM | TGI (MOLT-4 leukemia): > 100 µM | TGI (SF-295 CNS): 49.7 µM | TGI (A498 renal): 47.8 µM | TGI (DU-145 prostate): > 100 µM | TGI (M14 melanoma): 33.8 µM | TGI (EKVX NSCLC): 40.5 µM | TGI (HS 578T breast): 46.9 µM | TGI (RPMI-8226 leukemia): > 100 µM | TGI (BT-549 breast): 48.4 µM | TGI (SW-620 colon): > 100 µM | TGI (OVCAR-3 ovarian): 40.8 µM | TGI (MCF7 breast): > 100 µM | TGI (OVCAR-5 ovarian): 76.2 µM | TGI (COLO 205 colon): 37.7 µM | TGI (OVCAR-4 ovarian): 31.7 µM | TGI (NCI-H460 lung): 48.7 µM | TGI (SN12C renal): > 100 µM | TGI (OVCAR-8 ovarian): 72.3 µM | TGI (NCI-H522 lung): 31.5 µM | TGI (SNB-19 CNS): 80.4 µM | TGI (UACC-257 melanoma): 33 µM | TGI (NCI-H226 lung): 33.3 µM | TGI (KM12 colon): > 100 µM | TGI (SK-OV-3 ovarian): 62.7 µM | TGI (RXF 393 renal): 42.4 µM | TGI (SF-539 CNS): 35.7 µM | TGI (LOX IMVI melanoma): 38.9 µM | TGI (HT29 colon): 86.5 µM | TGI (786-0 renal): > 100 µM | TGI (NCI-H23 lung): 37.8 µM | TGI (HOP-92 NSCLC): 37.1 µM | TGI (SK-MEL-2 melanoma): 31.3 µM | TGI (HCC-2998 colon): 25.9 µM | TGI (A549 NSCLC): > 100 µM | TGI (NCI/ADR-RES ovarian): 73.2 µM | TGI (K-562 leukemia): 66.4 µM | TGI (MDA-MB-435): 29.5 µM | TGI (SK-MEL-5 melanoma): 30.6 µM | TGI (TK-10 renal): 99.7 µM | TGI (U251 CNS): 39.6 µM | TGI (IGROV1 ovarian): 46.8 µM | TGI (HCT-15 colon): 54.7 µM | TGI (SNB-75 CNS): 43.5 µM | TGI (UO-31 renal): 47.5 µM | TGI (PC-3 prostate): 49.9 µM | TGI (T-47D breast): > 100 µM | TGI (SK-MEL-28 melanoma): 31.3 µM | TGI (HOP-62 NSCLC): 91.4 µM | TGI (CAKI-1 renal): 36 µM | TGI (SF-268 CNS): 32.5 µM | TGI (UACC-62 melanoma): 37.1 µM | TGI (MDA-N): 42.1 µM | TGI (HCT-116 colon): 53.9 µM | TGI (ACHN renal): 93.7 µM | TGI (MALME-3M melanoma): 29.3 µM

CC(=O)Oc1cc2c(n(C)c1=O)-c1ccccc1C2
TGI (CCRF-CEM leukemia): > 100 µM | TGI (MDA-MB-231 breast): > 100 µM | TGI (MOLT-4 leukemia): > 100 µM | TGI (SF-295 CNS): > 100 µM | TGI (A498 renal): > 100 µM | TGI (DU-145 prostate): > 100 µM | TGI (M14 melanoma): > 100 µM | TGI (HS 578T breast): > 100 µM | TGI (RPMI-8226 leukemia): > 100 µM | TGI (BT-549 breast): > 100 µM | TGI (SW-620 colon): 65.9 µM | TGI (OVCAR-3 ovarian): > 100 µM | TGI (OVCAR-5 ovarian): > 100 µM | TGI (COLO 205 colon): > 100 µM | TGI (OVCAR-4 ovarian): > 100 µM | TGI (NCI-H460 lung): > 100 µM | TGI (SN12C renal): > 100 µM | TGI (OVCAR-8 ovarian): > 100 µM | TGI (NCI-H522 lung): 30.7 µM | TGI (SNB-19 CNS): > 100 µM | TGI (UACC-257 melanoma): > 100 µM | TGI (NCI-H226 lung): > 100 µM | TGI (KM12 colon): > 100 µM | TGI (SK-OV-3 ovarian): > 100 µM | TGI (RXF 393 renal): > 100 µM | TGI (LOX IMVI melanoma): > 100 µM | TGI (HT29 colon): > 100 µM | TGI (786-0 renal): > 100 µM | TGI (NCI-H23 lung): > 100 µM | TGI (HOP-92 NSCLC): > 100 µM | TGI (SK-MEL-2 melanoma): > 100 µM | TGI (HCC-2998 colon): > 100 µM | TGI (A549 NSCLC): > 100 µM | TGI (NCI/ADR-RES ovarian): 58.3 µM | TGI (K-562 leukemia): > 100 µM | TGI (MDA-MB-435): > 100 µM | TGI (SK-MEL-5 melanoma): > 100 µM | TGI (TK-10 renal): > 100 µM | TGI (U251 CNS): > 100 µM | TGI (IGROV1 ovarian): > 100 µM | TGI (HCT-15 colon): > 100 µM | TGI (SNB-75 CNS): > 100 µM | TGI (UO-31 renal): > 100 µM | TGI (PC-3 prostate): > 100 µM | TGI (T-47D breast): > 100 µM | TGI (SK-MEL-28 melanoma): > 100 µM | TGI (HOP-62 NSCLC): > 100 µM | TGI (CAKI-1 renal): 78 µM | TGI (SF-268 CNS): > 100 µM | TGI (UACC-62 melanoma): > 100 µM | TGI (MDA-N): > 100 µM | TGI (HCT-116 colon): > 100 µM | TGI (ACHN renal): > 100 µM | TGI (MALME-3M melanoma): > 100 µM
